Test results: PMC6798786 (Brain Communications, 2019)
Read-outs that look alike come from different tables or passages of the source.

How the values were obtained:
[1] = tested on: scn1lab mutant zebrafish; assay: locomotion (mean swim velocity) seizure-like behaviour assay in scn1lab mutant zebrafish larvae; assay type: in vivo, Danio rerio; settings: for change in vivo at 100 µM / change in vivo at 250 µM: Danio rerio; for effect on seizure-like swim behaviour, initial library screen: 100 µM or 250 µM, UCSF-synthesized compound; for effect on seizure-like swim behaviour, retest of independently synthesized compound: 10, 50, 100 and 250 µM, 30 and 90 min exposure
Description: (§1) For locomotion studies, zebrafish larvae (5 days post-fertilization) were placed into a single well of a clear flat-bottomed 96-well microplate containing embryo media. Sex determination is not possible at this stage of development. All drug screening experiments were conducted in an unbiased manner by investigators blinded to the test compounds and all files coded for post hoc analysis. The 96-well plate containing larvae was then placed inside a DanioVision box where they were allowed to acclimate (20 min; room temperature). EthoVision XT software (DanioVision, Noldus Information Technology) was used to obtain locomotion plots (10 min in duration). Seizure scoring was performed, as described ([Baraban et al., 2005]). All locomotion plots were analysed for distance travelled (in millimetres) and mean velocity (in millimetres per second). After 90 min of drug exposure larvae were examined for toxic side-effects. Compounds that decreased or stopped the larva heartbeat, or reduced or eliminated the escape response when touched, were considered toxic.
For behaviour analysis, the threshold for a change in mean swim velocity ≥40% is considered significant (>1.5× SD of 250 control treated scn1lab). Unless otherwise indicated, all data in this manuscript are presented as the mean ± standard error of the mean. […] Statistically significant differences are indicated with asterisks (*P < 0.05; **P < 0.01; ***P < 0.001). […]

[2] = tested on: scn1lab mutant zebrafish larvae; assay: toxicity check of larvae after 90 min drug exposure (heartbeat, escape response); assay type: in vivo, Danio rerio; settings: 90 min exposure; for toxicity in initial analogue screening: 100 µM or 250 µM
Description: as §1, with “Seizure scoring was performed, as described ([Baraban et al., 2005]).” left out

[3] = target: human 5-HT2BR (Homo sapiens, UniProt P41595); assay: radioligand binding (NIMH PDSP); settings: read-out: Ki 5-HT2BR
Description: (§2) All in vitro binding assay and Ki data studies were performed by the US National Institute of Mental Health Psychoactive Drug Screening Program (NIMH PDSP). For these studies, drugs were screened against recombinant, stably expressed human 5-HT2AR, 5-HT2BR, 5-HT2CR and H1, as described at https://pdspdb.unc.edu/pdspWeb/ ([Besnard et al., 2012]).

[4] = target: T1, human 5-HT2CR (Homo sapiens, UniProt P28335); assay: radioligand binding (NIMH PDSP)
T1 sequence (P28335 33-458): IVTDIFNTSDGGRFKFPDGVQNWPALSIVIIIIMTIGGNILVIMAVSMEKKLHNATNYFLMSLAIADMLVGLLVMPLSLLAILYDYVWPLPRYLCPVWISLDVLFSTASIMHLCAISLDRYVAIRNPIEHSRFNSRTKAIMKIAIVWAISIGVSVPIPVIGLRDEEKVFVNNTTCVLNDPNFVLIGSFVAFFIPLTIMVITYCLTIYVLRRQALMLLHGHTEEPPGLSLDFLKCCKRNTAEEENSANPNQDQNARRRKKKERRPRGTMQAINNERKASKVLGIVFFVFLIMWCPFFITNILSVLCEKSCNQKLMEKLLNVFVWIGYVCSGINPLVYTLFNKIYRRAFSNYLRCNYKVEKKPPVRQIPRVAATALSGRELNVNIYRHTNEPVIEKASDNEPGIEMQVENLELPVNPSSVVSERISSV
Description: as §2

[5] = target: human 5-HT2AR (Homo sapiens, UniProt P28223); assay: radioligand binding (NIMH PDSP)
Description: as §2

[6] = target: human H1 (Homo sapiens, UniProt P35367); assay: radioligand binding (NIMH PDSP); settings: read-out: Ki H1
Description: as §2

[7] = read-out: % change in velocity, individual larva 1 (heat map)
[8] = read-out: % change in velocity, individual larva 2 (heat map)
[9] = read-out: % change in velocity, individual larva 3 (heat map)
[10] = read-out: % change in velocity, individual larva 4 (heat map)
[11] = read-out: % change in velocity, individual larva 5 (heat map)
[12] = read-out: % change in velocity, individual larva 6 (heat map)
[13] = read-out: mean velocity change from six fish, Trial 1
[14] = read-out: mean velocity change from six fish, Trial 2
[15] = recombinant, stably expressed human receptor, clemizole analogues

Chain of human H1 (P35367 whole entry): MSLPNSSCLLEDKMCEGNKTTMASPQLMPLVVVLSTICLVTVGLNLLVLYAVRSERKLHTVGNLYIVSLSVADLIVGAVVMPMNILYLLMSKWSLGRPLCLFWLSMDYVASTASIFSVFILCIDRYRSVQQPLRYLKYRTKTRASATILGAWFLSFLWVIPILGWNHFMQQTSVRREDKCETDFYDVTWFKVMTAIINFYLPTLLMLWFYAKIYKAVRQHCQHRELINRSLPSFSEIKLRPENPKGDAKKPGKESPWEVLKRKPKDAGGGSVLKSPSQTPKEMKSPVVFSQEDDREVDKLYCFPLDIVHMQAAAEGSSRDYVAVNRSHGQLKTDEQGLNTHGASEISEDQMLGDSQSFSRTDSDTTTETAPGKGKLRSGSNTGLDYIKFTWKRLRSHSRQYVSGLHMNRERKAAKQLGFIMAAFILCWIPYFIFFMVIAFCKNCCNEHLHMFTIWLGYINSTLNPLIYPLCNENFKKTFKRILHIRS
Chain of human 5-HT2BR (P41595 whole entry): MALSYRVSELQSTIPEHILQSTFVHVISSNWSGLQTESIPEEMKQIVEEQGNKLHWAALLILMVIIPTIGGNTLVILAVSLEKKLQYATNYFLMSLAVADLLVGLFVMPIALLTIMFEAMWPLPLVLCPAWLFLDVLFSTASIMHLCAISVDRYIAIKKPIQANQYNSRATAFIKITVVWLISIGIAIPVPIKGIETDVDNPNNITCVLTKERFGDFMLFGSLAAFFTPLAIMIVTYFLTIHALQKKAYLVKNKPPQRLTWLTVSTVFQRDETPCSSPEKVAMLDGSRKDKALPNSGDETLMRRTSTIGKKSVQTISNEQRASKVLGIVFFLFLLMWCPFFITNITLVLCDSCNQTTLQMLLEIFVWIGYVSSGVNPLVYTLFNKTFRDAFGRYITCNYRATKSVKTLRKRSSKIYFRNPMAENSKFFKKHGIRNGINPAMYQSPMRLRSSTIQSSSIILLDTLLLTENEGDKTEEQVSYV
Chain of human 5-HT2AR (P28223 whole entry): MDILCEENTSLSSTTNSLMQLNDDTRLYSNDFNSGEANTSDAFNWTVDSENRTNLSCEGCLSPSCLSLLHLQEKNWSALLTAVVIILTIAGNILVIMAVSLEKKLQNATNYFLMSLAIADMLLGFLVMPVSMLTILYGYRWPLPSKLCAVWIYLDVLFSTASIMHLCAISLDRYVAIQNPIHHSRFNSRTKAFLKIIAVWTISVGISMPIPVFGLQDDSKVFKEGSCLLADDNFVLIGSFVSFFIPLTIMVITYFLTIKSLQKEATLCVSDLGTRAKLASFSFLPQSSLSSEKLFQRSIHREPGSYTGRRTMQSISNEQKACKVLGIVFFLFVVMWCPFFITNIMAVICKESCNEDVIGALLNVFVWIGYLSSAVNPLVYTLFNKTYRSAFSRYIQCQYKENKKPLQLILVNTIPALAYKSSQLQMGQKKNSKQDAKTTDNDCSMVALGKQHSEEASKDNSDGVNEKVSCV

SMILES | change in vivo at 100 µM [1, 7] | change in vivo at 250 µM [1, 7] | change in vivo at 100 µM [1, 8] | change in vivo at 250 µM [1, 8] | change in vivo at 100 µM [1, 9] | change in vivo at 250 µM [1, 9] | change in vivo at 100 µM [1, 10] | change in vivo at 250 µM [1, 10] | change in vivo at 100 µM [1, 11] | change in vivo at 250 µM [1, 11] | change in vivo at 100 µM [1, 12] | change in vivo at 250 µM [1, 12] | change in vivo at 100 µM [1, 13] | change in vivo at 250 µM [1, 13] | change in vivo at 100 µM [1, 14] | toxicity in initial analogue screening [2] | Ki [5, 15] | Ki [3, 15] | Ki [4, 15] | Ki [6, 15] | other results
Clc1ccc(Cn2c(CC3CCCC3)nc3ccccc32)cc1 [Compound 1] | -100% | -100% | -100% | -60% | -100% | -100% | -100% | -100% | -100% | -100% | -100% | -100% | -100% | -96.2% | -100% | toxic |  |  |  |  | Ki [3]: 501 nM; Ki [4]: 2730 nM
O=C(c1nc2ccccc2n1Cc1ccc(Cl)cc1)N1CCCC1 [Compound 2] | -68.2% | -100% | -100% | -100% | -100% | -100% | -100% | -100% | -100% | -100% | -100% | -100% | -97.2% | -100% | -97.2% | toxic |  |  |  |  | 
c1ccc(Cn2c(CN3CCCC3)nc3ccccc32)cc1 [Compound 3] |  |  |  |  |  |  |  |  |  |  |  |  |  |  |  |  | 327 nM | 83 nM | 292 nM | 4.8 nM | 
CCCn1c(CN2CCCC2)nc2ccccc21.O=CO [Compound 5] |  |  |  |  |  |  |  |  |  |  |  |  |  |  |  |  | > 10000 nM | 219 nM | > 10000 nM | 362 nM | effect on seizure-like swim behaviour, initial library screen [1]: no significant effect on swim behaviour; effect on seizure-like swim behaviour, retest of independently synthesized compound [1]: no significant effect on the swim behaviour
Fc1ccc(Cn2c(CN3CCCC3)nc3ccccc32)cc1 [Compound 7] |  |  |  |  |  |  |  |  |  |  |  |  |  |  |  |  | 15 nM | 46 nM | 345 nM | 1 nM | 
Clc1ccc(Cn2ccnc2CN2CCCC2)cc1 [Compound 9] | -13.5% | -94% | -0.7% | -100% | -34.9% | -22.5% | -57.3% | -100% | 34.4% | -38.8% | -33.2% | -100% | -28.1% | -73.2% | -28.1% |  |  |  |  |  | effect on seizure-like swim behaviour, initial library screen [1]: effective in suppressing; change in vivo at 250 µM [1, 14]: -100%; toxicity at 250 µM ([2]; 250 µM): toxic; Ki [5]: > 10000 nM; Ki [3]: > 10000 nM; Ki [4]: 447 nM; Ki [6]: 29 nM
Clc1ccc(Cn2c(CN3CCCC3)cc3ccccc32)cc1 [Compound 11] | 39.3% | -100% | 403% | -100% | 91.2% | -100% | 120% | -100% | 149% | -100% | 66.8% | -100% | 124% | -100% | 124% |  |  |  |  |  | Ki [5]: 631 nM; Ki [3]: 134 nM; Ki [4]: 248 nM; Ki [6]: 6.4 nM
Nc1ccc(Cn2c(CN3CCCC3)nc3ccccc32)cc1 [Compound 14] |  |  |  |  |  |  |  |  |  |  |  |  |  |  |  |  | > 10000 nM | 606 nM | > 10000 nM | 27 nM | effect on seizure-like swim behaviour, initial library screen [1]: no significant effect on swim behaviour; effect on seizure-like swim behaviour, retest of independently synthesized compound [1]: no significant effect on the swim behaviour
Clc1ccc(Cn2c(CN3CCCCC3)nc3ccccc32)cc1 [Compound 22] |  |  |  |  |  |  |  |  |  |  |  |  |  |  |  | toxic | 623 nM | 306 nM | 4580 nM | 8.5 nM | 
